Laboratory results reported in patent EP3057951B1, “METHYLENE LINKED QUINOLINYL MODULATORS OF ROR-GAMMA-T” (Janssen Pharmaceutica NV, priority 2013, dated 2015).

Key:
[1] = target: T1, wild type human RORγt ligand binding domain (RORyt LBD) (Homo sapiens, UniProt P51449); test: RORγt ThermoFluor assay (thermal shift, binding affinity KD)
T1 construct: His-tag (N); TurboTEV protease cleavage site (ENLYFQG) (N); made in house; host or cells: E. coli (pHIS1, modified pET vector)
T1 sequence (P51449 258-518): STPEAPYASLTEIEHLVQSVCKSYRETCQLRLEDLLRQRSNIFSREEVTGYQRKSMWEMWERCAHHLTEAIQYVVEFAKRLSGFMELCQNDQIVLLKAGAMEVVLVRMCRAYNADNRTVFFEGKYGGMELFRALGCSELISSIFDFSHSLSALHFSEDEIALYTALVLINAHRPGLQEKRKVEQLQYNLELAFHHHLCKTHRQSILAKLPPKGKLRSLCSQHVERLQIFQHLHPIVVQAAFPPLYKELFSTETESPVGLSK

[2] = target: T2, wild type human RORγt LBD (Homo sapiens, UniProt P51449); test: RORγt (LBD) Reporter Assay (GAL4-luciferase, HEK293T cells); type: cell-based; details: for RORγt (LBD) Reporter Assay, % inhibition @ 6 µM: 6 µM compound concentration; for IC50: HEK293T cells, value after the comma with ∼, > or < could not be included in the average; for inhibition at 6 µM: HEK-293T, read-out: RORγt (LBD) Reporter Assay, % inhibition @ 6 µM, 6 µM compound concentration
T2 construct: expressed in transfected cells; host or cells: HEK293T
T2 sequence (P51449 258-518): T1 sequence (P51449 258-518)

COc1nc2ccc(C(O)(c3ccc(Cl)cc3)c3cncn3C)cc2c(C#N)c1Cc1ccc(C(F)(F)F)cc1 (single isomer, unassigned) [Example 55c, 6-((4-Chlorophenyl)(hydroxy)(1-methyl-1H-imidazol-5-yl)methyl)-2-methoxy-3-(4-(trifluoromethyl)benzyl)quinoline-4-carbonitrile]
Kd [1]: 4.5 nM | RORγt (LBD) Reporter Assay, % inhibition @ 6 µM ([2]; 6 µM): 100% | IC50 [2]: 93 nM

COc1nc2ccc(C(O)(c3cnnn3C)c3cnc(C)n3C)cc2c(C#N)c1Cc1ccc(F)cc1 (single isomer, unassigned) [Example 66b, 6-((1,2-Dimethyl-1H-imidazol-5-yl)(hydroxy)(1-methyl-1H-1,2,3-triazol-5-yl)methyl)-3-(4-fluorobenzyl)-2-methoxyquinoline4-carbonitrile]
Kd [1]: 1.1 nM | IC50 [2]: 3.1 nM | inhibition at 6 µM [2]: 82%

COc1nc2ccc(C(O)(c3cnnn3C)c3cnc(C)n3C)cc2c(C#N)c1Cc1ccc(F)cc1 (single isomer, unassigned) [Example 66c, 6-((1,2-Dimethyl-1H-imidazol-5-yl)(hydroxy)(1-methyl-1H-1,2,3-triazol-5-yl)methyl)-3-(4-fluorobenzyl)-2-methoxyquinoline4-carbonitrile]
Kd [1]: 2.2 nM | RORγt (LBD) Reporter Assay, % inhibition @ 6 µM ([2]; 6 µM): 90% | IC50 [2]: 2.6 nM

COc1nc2ccc(C(O)(c3ccccc3)C3CCN(C(C)=O)CC3)cc2c(Cl)c1Cc1ccc(C(F)(F)F)cc1 (single isomer, unassigned) [Example 69b, 1-(4-((4-Chloro-2-methoxy-3-(4-(trifluoromethyl)benzyl)quinolin-6-yl)(hydroxy)(phenyl)methyl)piperidin-1-yl)ethanone]
Kd [1]: 1.8 nM | IC50 [2]: 36 nM | inhibition at 6 µM [2]: 100%

COc1nc2ccc(C(O)(c3ccccc3)C3CCN(C(C)=O)CC3)cc2c(Cl)c1Cc1ccc(C(F)(F)F)cc1 (single isomer, unassigned) [Example 69c, 1-(4-((4-Chloro-2-methoxy-3-(4-(trifluoromethyl)benzyl)quinolin-6-yl)(hydroxy)(phenyl)methyl)piperidin-1-yl)ethanone]
Kd [1]: 35 nM | RORγt (LBD) Reporter Assay, % inhibition @ 6 µM ([2]; 6 µM): 99% | IC50 [2]: 69 nM

COc1nc2ccc(C(N)(c3ccc(C(F)(F)F)nc3)c3cncn3C)cc2c(Cl)c1Cc1cc2ccccc2s1 (single isomer, unassigned) [Example 71b, (3-(Benzo[b]thiophen-2-ylmethyl)-4-chloro-2-methoxyquinolin-6-yl)(1-methyl-1H-imidazol-5-yl)(6-(trifluoromethyl)pyridin-3-yl)methanamine]
Kd [1]: 32 nM | IC50 [2]: 230 nM | inhibition at 6 µM [2]: 96%

COc1nc2ccc(C(N)(c3ccc(C(F)(F)F)nc3)c3cncn3C)cc2c(Cl)c1Cc1cc2ccccc2s1 (single isomer, unassigned) [Example 71c, (3-(Benzo[b]thiophen-2-ylmethyl)-4-chloro-2-methoxyquinolin-6-yl)(1-methyl-1H-imidazol-5-yl)(6-(trifluoromethyl)pyridin-3-yl)methanamine]
Kd [1]: 270 nM | RORγt (LBD) Reporter Assay, % inhibition @ 6 µM ([2]; 6 µM): 94% | IC50 [2]: 830 nM

CC(=O)N1CCC(C(O)(c2ccccc2)c2ccc3nc(Cl)c(Cc4cncnc4)c(OC(F)F)c3c2)CC1 (single isomer, unassigned) [Example 73b, 1-(4-((2-Chloro-4-(difluoromethoxy)-3-(pyrimidin-5-ylmethyl)quinolin-6-yl)(hydroxy)(phenyl)methyl)piperidin-1-yl)ethanone]
Kd [1]: 44 nM | IC50 [2]: 700 nM | inhibition at 6 µM [2]: 35%

CC(=O)N1CCC(C(O)(c2ccccc2)c2ccc3nc(Cl)c(Cc4cncnc4)c(OC(F)F)c3c2)CC1 (single isomer, unassigned) [Example 73c, 1-(4-((2-Chloro-4-(difluoromethoxy)-3-(pyrimidin-5-ylmethyl)quinolin-6-yl)(hydroxy)(phenyl)methyl)piperidin-1-yl)ethanone]
Kd [1]: 480 nM | RORγt (LBD) Reporter Assay, % inhibition @ 6 µM ([2]; 6 µM): 21% | IC50 [2]: > 6000 nM

COc1nc2ccc(C(O)(c3cnnn3C)C3CCN(C(C)=O)CC3)cc2c(Cl)c1Cc1ccc(C(F)(F)F)cc1 (single isomer, unassigned) [Example 74b, 1-(4-((4-Chloro-2-methoxy-3-(4-(trifluoromethyl)benzyl)quinolin-6-yl)(hydroxy)(1-methyl-1H-1,2,3-triazol-5-yl)methyl)piperidin-1-yl)ethanone]
Kd [1]: 5 nM | IC50 [2]: 15 nM | inhibition at 6 µM [2]: 102%

COc1nc2ccc(C(O)(c3cnnn3C)C3CCN(C(C)=O)CC3)cc2c(Cl)c1Cc1ccc(C(F)(F)F)cc1 (single isomer, unassigned) [Example 74c, 1-(4-((4-Chloro-2-methoxy-3-(4-(trifluoromethyl)benzyl)quinolin-6-yl)(hydroxy)(1-methyl-1H-1,2,3-triazol-5-yl)methyl)piperidin-1-yl)ethanone]
Kd [1]: 7.7 nM | RORγt (LBD) Reporter Assay, % inhibition @ 6 µM ([2]; 6 µM): 101% | IC50 [2]: 20 nM

CC(=O)N1CCC(C(O)(c2ccc(C(F)(F)F)nc2)c2cc(C)c3nc(C#N)c(Cc4ccc(-n5cccn5)cc4)c(C#N)c3c2)CC1 (single isomer, unassigned) [Example 79b, 3-(4-(1H-Pyrazol-1-yl)benzyl)-6-((1-acetylpiperidin-4-yl)(hydroxy)(6(trifluoromethyl)pyridin-3-yl)methyl)-8-methylquinoline-2,4-dicarbonitrile]
Kd [1]: 580 nM | IC50 [2]: 760 nM | inhibition at 6 µM [2]: 92%

CC(=O)N1CCC(C(O)(c2ccc(C(F)(F)F)nc2)c2cc(C)c3nc(C#N)c(Cc4ccc(-n5cccn5)cc4)c(C#N)c3c2)CC1 (single isomer, unassigned) [Example 79c, 3-(4-(1H-Pyrazol-1-yl)benzyl)-6-((1-acetylpiperidin-4-yl)(hydroxy)(6(trifluoromethyl)pyridin-3-yl)methyl)-8-methylquinoline-2,4-dicarbonitrile]
Kd [1]: 45 nM | RORγt (LBD) Reporter Assay, % inhibition @ 6 µM ([2]; 6 µM): 103% | IC50 [2]: 230 nM

CC(=O)N1CCC(C(O)(c2cc(C)c3nc(C#N)c(Cc4ccc(-n5cccn5)cc4)c(C#N)c3c2)c2cncn2C)CC1 (single isomer, unassigned) [Example 81b, 3-(4-(1H-Pyrazol-1-yl)benzyl)-6-((1-acetylpiperidin-4-yl)(hydroxy)(1-methyl-1H-imidazol-5-yl)methyl)-8-methylquinoline-2,4-dicarbonitrile]
Kd [1]: 36 nM | IC50 [2]: 310 nM | inhibition at 6 µM [2]: 97%

CC(=O)N1CCC(C(O)(c2cc(C)c3nc(C#N)c(Cc4ccc(-n5cccn5)cc4)c(C#N)c3c2)c2cncn2C)CC1 (single isomer, unassigned) [Example 81c, 3-(4-(1H-Pyrazol-1-yl)benzyl)-6-((1-acetylpiperidin-4-yl)(hydroxy)(1-methyl-1H-imidazol-5-yl)methyl)-8-methylquinoline-2,4-dicarbonitrile]
Kd [1]: 49 nM | RORγt (LBD) Reporter Assay, % inhibition @ 6 µM [2]: 97% | IC50 [2]: 560 nM

Cc1cc(C(O)(c2ccnc(C(F)(F)F)c2)c2cncn2C)cc2c(C#N)c(Cc3ccc(-n4cccn4)cc3)c(C#N)nc12 (single isomer, unassigned) [Example 83b, 3-(4-(1H-Pyrazol-1-yl)benzyl)-6-(hydroxy(1-methyl-1H-imidazol-5-yl)(2-(trifluoromethyl)pyridin-4-yl)methyl)-8-methylquinoline-2,4-dicarbonitrile]
Kd [1]: 0.67 nM | IC50 [2]: 13 nM | inhibition at 6 µM [2]: 104%

Cc1cc(C(O)(c2ccnc(C(F)(F)F)c2)c2cncn2C)cc2c(C#N)c(Cc3ccc(-n4cccn4)cc3)c(C#N)nc12 (single isomer, unassigned) [Example 83c, 3-(4-(1H-Pyrazol-1-yl)benzyl)-6-(hydroxy(1-methyl-1H-imidazol-5-yl)(2-(trifluoromethyl)pyridin-4-yl)methyl)-8-methylquinoline-2,4-dicarbonitrile]
Kd [1]: 450 nM | RORγt (LBD) Reporter Assay, % inhibition @ 6 µM ([2]; 6 µM): 100% | IC50 [2]: 1500 nM

COc1nc2ccc(C(O)(c3cc(C)nc(C)c3)c3cnnn3C)cc2c(Cl)c1Cc1ccc(C(F)(F)F)cc1 (single isomer, unassigned) [Example 84b, (4-Chloro-2-methoxy-3-(4-(trifluoromethyl)benzyl)quinolin-6-yl)(2,6-dimethylpyridin-4-yl)(1-methyl-1H-1,2,3-triazol-5-yl)methanol]
Kd [1]: 180 nM | IC50 [2]: 210 nM | inhibition at 6 µM [2]: 103%

COc1nc2ccc(C(O)(c3cc(C)nc(C)c3)c3cnnn3C)cc2c(Cl)c1Cc1ccc(C(F)(F)F)cc1 (single isomer, unassigned) [Example 84c, (4-Chloro-2-methoxy-3-(4-(trifluoromethyl)benzyl)quinolin-6-yl)(2,6-dimethylpyridin-4-yl)(1-methyl-1H-1,2,3-triazol-5-yl)methanol]
Kd [1]: 0.003 nM | RORγt (LBD) Reporter Assay, % inhibition @ 6 µM ([2]; 6 µM): 100% | IC50 [2]: 6 nM

COc1nc2ccc(C(O)(c3cnnn3C)C3CCOCC3)cc2c(Cl)c1Cc1ccc(C(F)(F)F)cc1 (single isomer, unassigned) [Example 85b, (4-Chloro-2-methoxy-3-(4-(trifluoromethyl)benzyl)quinolin-6-yl)(1-methyl-1H-1,2,3-triazol-5-yl)(tetrahydro-2H-pyran-4-yl)methanol]
Kd [1]: 0.31 nM | IC50 [2]: 1.3 nM | inhibition at 6 µM [2]: 99%
